Laboratory results published in US20100104669A1, “Method for preparing an aqueous solution containing triterpenic acid, aqueous solution containing triterpenic acid, and use thereof” (priority 2008, published 2010).

Columns and labels:
[1] = triterpenic acid content of basic aqueous solution with cyclodextrins (Example 4); type: physicochemical; details: water with trisodium phosphate (10 mM) and 2 mg/mL cyclodextrins, 120° C. and >2 bar
Experimental: The triterpenoid-rich powder described in Example 1 was extracted with water in the presence of trisodium phosphate (10 mM) and 2 mg/mL cyclodextrins at 120° C. and >2 bar.
The basic triterpenic acid-rich solution contained more than 100 μg/mL oleanolic acid and more than 8 μg/mL betulinic acid. The basic solution thus prepared was then adjusted to pH 7.4 using an aqueous phosphoric acid solution. The extent of dilution and the solvent quantities were selected in such away that the salt concentration of the neutralized triterpenic acid-rich solution was between 5 and 140 mM.

[2] = triterpenic acid content of basic aqueous solution (trisodium phosphate extraction, Example 1); type: physicochemical; details: water with trisodium phosphate, extracted at 120° C. and >2 bar, cooled to room temperature, filtered through 0.22 μm filter
Experimental: Dried annual shoots of mistletoe were extracted with n-heptane at 120° C. and >2 bar pressure. The precipitate obtained upon cooling of the extraction agent was composed of more than 60% oleanolic acid and more than 3% betulinic acid. The triterpenic acid-rich powder thus obtained was extracted with water in the presence of trisodium phosphate at 120° C. and >2 bar pressure to produce a supersaturated basic solution.
The basic triterpenoid-rich solution, cooled to room temperature and filtered through a 0.22 μm filter, contained more than 80 μg/mL oleanolic acid and more than 8 μg/mL betulinic acid. The basic solution thus prepared was then adjusted to pH 7.4 using an aqueous phosphoric acid solution, in the presence of 1.6 μg/mL polysaccharides which had been obtained from mistletoe berries. The extent of dilution and the solvent quantities were selected in such a way that the salt concentration of the neutralized triterpenic acid-rich solution was between 5 and 140 mM.

- content in basic triterpenic acid-rich solution [1]: more than 100 μg/mL
- content in basic triterpenoid-rich solution [2]: more than 80 μg/mL
Compound: CC1(C)CC[C@]2(C(=O)O)CC[C@]3(C)C(=CC[C@@H]4[C@@]5(C)CC[C@H](O)C(C)(C)[C@@H]5CC[C@]43C)[C@@H]2C1 [oleanolic acid]
